Data from patent publication US8741882B2, “Anti-diabetic compounds” (Sen Capital, LLC., priority 2012, dated 2014).
Structures can show the parent of a compound that is named as a salt.

Legend:
ICR mouse = assay: Animal test: blood glucose after oral glucose load in mice dosed by oral gavage; format: in vivo; conditions: for response versus vehicle control (negative group), p<0.05 / Means at 20 min. (mean value of glucose level at 20 min. minus glucose level at time zero, before glucose dosing) / blood glucose level as compared with the Vehicle group during the test period (FIG. 5): ICR mouse; for response versus vehicle control (negative group), p<0.05: Metformin Hydrochloride 150 mg/kg, Compound 2 525 and 1050 mg/kg; for Means at 20 min. (mean value of glucose level at 20 min. minus glucose level at time zero, before glucose dosing): 1.5 g/kg glucose 30 min after dosing, in mg/dL; for blood glucose level as compared with the Vehicle group during the test period (FIG. 5): oral gavage, doses as in Table 1
Description: Approximately 7-9-week-old ICR mouse were purchased from BioLASCO Taiwan Co., Ltd (Taipei, Taiwan).
Linear analysis of the glucose monitoring system: eight concentrations (0, 50, 100, 200, 300, 400, 500, 600 mg/dL) of glucose solution were determined duplicate. The animals were fasted approximately 4 hours before dosing. Then, the animals were administered with the test compounds via oral gavage. After 30 minutes of the test compound dosed, the animals were administered with 1.5 g/kg glucose solution (Concentration: 0.15 g/mL, Dose volume: 10 mL/kg) via oral gavage. The blood glucose was determined before the test compound dosing, before glucose dosing, and after glucose dosing in 5, 15, 20, 25, 30, 40 and 50 minutes.
The results were expressed as means and the statistical significance was evaluated by analysis of variance (ANOVA) followed by least significance difference post hoc test. A level of p<0.05 was considered statistically significant.

[1] = following oral administration; cited from earlier work

With `COC(=O)CC[C@@H](C)[C@H]1CC[C@H]2[C@@H]3[C@H](O)C[C@@H]4C[C@H](OC(=O)NC(=N)NC(=N)N(C)C)CC[C@]4(C)[C@H]3C[C@H](O)[C@]12C` [Compound 2] the “response versus vehicle control (negative group), p<0.05” value (ICR mouse) was “significantly different”, the “Means at 20 min. (mean value of glucose level at 20 min. minus glucose level at time zero, before glucose dosing)” value (ICR mouse; Test 1, 525 mg/kg oral gavage) was 225.8 and the “Means at 20 min. (mean value of glucose level at 20 min. minus glucose level at time zero, before glucose dosing)” value (ICR mouse; Test 2, 1050 mg/kg oral gavage) was 225.8. The “blood glucose level as compared with the Vehicle group during the test period (FIG. 5)” value (ICR mouse) was “lowered” and the “effect on hyperglycemia in terms of efficacy in lowering blood glucose in animals” value (ICR mouse; summary of Example 3) was “improved hyperglycemia”.

In the case of `CN(C)C(=N)N=C(N)N` [Metformin Hydrochloride], the “Means at 20 min. (mean value of glucose level at 20 min. minus glucose level at time zero, before glucose dosing)” value (ICR mouse; 150 mg/kg oral gavage) is reported as 125.4, the “response versus vehicle control (negative group), p<0.05” value (ICR mouse) is reported as “significantly different” and the “blood glucose level as compared with the Vehicle group during the test period (FIG. 5)” value (ICR mouse) is reported as “lowered”.

In the case of `CN(C)C(=N)NC(=N)N` [Metformin, N,N-dimethylimidodicarbonimidic diamide], the “absorbed drug eliminated via the renal route within the first 24 hours” value [1] is given as “approximately 90%” and the “response versus vehicle control (negative group), p<0.05” value (ICR mouse) is given as “significantly different”.
